pIC50: −log10 of the molar value.
Each compound was assayed against T1, Sterol O-acyltransferase 1 (Rattus norvegicus, UniProt O70536) (assay: ChEBML_28359).
T1 sequence (O70536 whole entry): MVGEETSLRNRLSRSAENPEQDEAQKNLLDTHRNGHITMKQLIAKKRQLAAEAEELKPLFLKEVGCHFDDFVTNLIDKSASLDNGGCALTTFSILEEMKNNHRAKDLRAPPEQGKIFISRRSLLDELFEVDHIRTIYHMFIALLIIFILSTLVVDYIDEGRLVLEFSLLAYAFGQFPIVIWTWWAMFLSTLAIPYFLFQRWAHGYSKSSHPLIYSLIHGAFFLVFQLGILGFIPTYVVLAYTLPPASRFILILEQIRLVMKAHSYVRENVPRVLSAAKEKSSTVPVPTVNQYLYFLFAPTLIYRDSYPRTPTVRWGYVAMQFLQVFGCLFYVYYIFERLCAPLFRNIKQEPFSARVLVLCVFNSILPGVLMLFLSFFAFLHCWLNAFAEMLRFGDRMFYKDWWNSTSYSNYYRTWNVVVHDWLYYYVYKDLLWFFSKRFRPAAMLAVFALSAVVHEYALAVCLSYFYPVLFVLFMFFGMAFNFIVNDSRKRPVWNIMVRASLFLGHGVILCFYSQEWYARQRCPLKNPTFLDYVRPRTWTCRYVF
From the text: In vitro inhibition of rat liver microsomal Acyl coenzyme A:cholesterol acyltransferase
CN(C(=O)c1ccc(C#N)cc1)C1N(C)C(c2ccc(C#N)cc2)=NC1(C(F)(F)F)C(F)(F)F (stereo not drawn) gave a pIC50 of 5.72.
CN(C(=O)c1ccc(C#N)cc1)[C@H]1N(C)C(c2ccc(C#N)cc2)=NC1(C(F)(F)F)C(F)(F)F was tested, and the pIC50 was 6.00.
In the case of CN(C(=O)c1ccc(C#N)cc1)[C@@H]1N(C)C(c2ccc(C#N)cc2)=NC1(C(F)(F)F)C(F)(F)F, the pIC50 was 4.26.
